Results from US8067456B2 (AEterna Zentaris GmbH, priority 2004, dated 2011).

Target: T1, rat LHRH receptor (Rattus norvegicus, UniProt P30969)
T1 construct: expressed in transfected cells; host or cells: LTK cells (mouse fibroblasts, ATCC CCL-1.3)
T1 sequence (P30969 1-327): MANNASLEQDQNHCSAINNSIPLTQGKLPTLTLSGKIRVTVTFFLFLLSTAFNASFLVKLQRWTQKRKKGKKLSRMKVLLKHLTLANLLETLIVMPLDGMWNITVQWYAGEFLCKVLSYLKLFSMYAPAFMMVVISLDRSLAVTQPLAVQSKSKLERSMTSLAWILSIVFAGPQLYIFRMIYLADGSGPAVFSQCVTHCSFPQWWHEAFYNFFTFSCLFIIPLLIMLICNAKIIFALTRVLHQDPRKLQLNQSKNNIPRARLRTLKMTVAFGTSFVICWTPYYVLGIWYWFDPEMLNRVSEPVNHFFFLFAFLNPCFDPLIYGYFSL
Assay: LHRH receptor-ligand binding assay (transfected LTK cells)
Conditions: LTK cells transfected with rat LHRH receptor, 125I-triptorelin tracer, 37° C., 60 min; read-out: Binding to r-LHRHR EC50
Description: ^125I-Triptorelin [^125I-(D)-Trp6-GnRH] was purchased from Biotrend (Cologne, Germany).
The specific activity was in each case 2.13 Ci/mmol.
LTK cells (mouse fibroblasts: ATCC No. CCL-1.3) which have been transfected with the rat LHRH receptor are cultivated in DMEM medium (Invitrogen Life Technologies, Germany) with penicillin (100 I.U./ml), streptomycin (0.1 mg/ml) and glutamine (0.01 mol/l) and 10% fetal calf serum (FCS; Invitrogen Life Technologies, Germany) on plastic tissue culture plates (Nunc, Germany, 245×245-20 mm).
80% confluent cell culture plates are washed twice with 50 ml of phosphate-buffered saline (PBS) and then detached with 0.01 M EDTA solution. The cells are pelleted by centrifugation at 200·g for 5 min in a laboratory centrifuge (Kendro, Germany). The cell pellet is resuspended in 3 ml of binding medium (DMEM; 10 mM Hepes; 0.5% BSA; 0.1% […]; 1 g/l bacitracin (add fresh, stock 100×); 0.1 g/l SBTI (add fresh, stock 1000×) and the cell count is determined by Trypan blue staining in a Neubauer counting chamber. The cell suspension is adjusted with binding medium to a concentration of 5×10^5 cells/0.05 ml.
Binding studies for competition plots are carried out as duplicates. The test substances are employed as 10 mM DMSO solutions. They are diluted to 4 times the final concentration employed with binding medium. 25 μl of the substance dilution are mixed with 25 μl of tracer solution (^125I-triptorelin or ^125I-cetrorelix). The tracer concentration is adjusted to approx. 50 000 cpm (measured in a Cobra II, γ counter. PE Liefe Science, Germany) in the final reaction volume of 100 μl.
200 μl of silicone/liquid paraffin mixture (84%:16%) are introduced into 650 μl conical tubes (Roth. Germany). 50 μl of the cell suspension are pipetted thereon, followed by 50 μl of the test substance/tracer mixture. The tubes are capped and incubated with vertical rotation in an incubator at 37° C. for 60 min. After incubation, the samples are centrifuged in a centrifuge (Kendro, Germany) at 900 rpm and subsequently shock-frozen in liquid N2. The tip with the cell pellet is cut off and transferred into prepared counting vials (Roth, Germany). The remainder of the conical tube with the remaining supernatant is likewise transferred into a counting vial. The measurement takes place in a γ counter for 1 min/sample.
Evaluation of the samples takes place after calculation of the specific binding compared with untreated cells, after subtraction of the nonspecific binding (excess of unlabeled ligand, 1 μM) by means of GraphPad Prism or alternatively by means of OMMM software.

EC50: 7.9 nM
SMILES: CCC(C)[C@H](NC(=O)OCc1ccccc1)C(=O)N[C@]1(C(=O)N[C@H](C(N)=S)C(C)CC)CCc2[nH]c3c(Cl)cc(Cl)cc3c2C1 (stereo partly drawn) [Compound 7, benzyl {(S)-1-[(R)-6,8-dichloro-3-((S)-2-methyl-1-thiocarbamoylbutylcarbamoyl)-2,3,4,9-tetrahydro-1H-carbazol-3-ylcarbamoyl]-2-methylbutyl}carbamate]
